Measured values taken from ChEMBL document CHEMBL4627387, “Cucurbitane-Type Triterpenoids from the Vines of Momordica charantia and Their Anti-inflammatory Activities” (J Nat Prod, 2020).
Activity calls are given as the source filed them. The calls are words filed in the database; no cut-off is given here.

Columns and labels:
[1] = test system: Human immunodeficiency virus 1; test: Antiviral activity against HIV 1 NL4-3 infected in human MT4 cells assessed as reduction in viral replication and measured on day 3 post infection by Nano-glo luciferase reporter gene assay; assay type: functional, organism-based
[2] = test system: RAW264.7; test: Antiinflammatory activity in mouse RAW264.7 cells assessed as inhibition of LPS-induced NO production incubated for 12 hrs by Griess reagent based assay; assay type: functional
[3] = test system: RAW264.7; test: Cytotoxicity against mouse RAW264.7 cells assessed as reduction in cell viability after 24 hrs by alamarBlue assay; assay type: cell-based; details: RAW264.7, 24 h
[4] = test system: MCF7; test: Antiproliferative activity against human MCF7 cells assessed as reduction in cell viability after 48 hrs by alamarBlue assay; assay type: functional, cell-based
[5] = test system: HepG2; test: Antiproliferative activity against human HepG2 cells assessed as reduction in cell viability after 48 hrs by alamarBlue assay; assay type: functional, cell-based
[6] = test system: WiDr; test: Antiproliferative activity against human WiDr cells assessed as reduction in cell viability after 48 hrs by alamarBlue assay; assay type: functional, cell-based
[7] = Cytotoxicity against mouse RAW264.7 cells assessed as cell viability at 15 ug/ml after 24 hrs by alamarBlue assay relative to control; assay type: cell-based; details: read-out: Activity
[8] = test system: HEp-2; test: Antiproliferative activity against human Hep2 cells assessed as reduction in cell viability after 48 hrs by alamarBlue assay; assay type: functional, cell-based

Row | Structure (SMILES) | Activity [1] | inhibition (INH) [2] [%] | IC50 [3] [µM] | Activity [4] | Activity [5] | Activity [6] | viability at 24 h, 15 ug/ml [7] [%] | Activity [8]
1 | COC(C)(C)/C=C/C[C@@H](C)[C@H]1CC[C@@]2(C)[C@@H]3[C@@H](O)C=C4[C@@H](CC[C@H](OC(=O)CC(=O)O)C4(C)C)[C@]3(C=O)CC[C@]12C | inactive | – | – | – | – | – | – | –
2 | COC(=O)CC(=O)O[C@H]1CC[C@@H]2C(=C[C@H](O)[C@@H]3[C@@]2(C=O)CC[C@]2(C)[C@@H]([C@H](C)C/C=C/C(C)(C)O)CC[C@@]32C)C1(C)C | inactive | 65.1 | 20.3 | inactive | inactive | inactive | 67.6 | inactive
3 | CO[C@@H]1O[C@]23C=C[C@@H]4[C@@]1(CC[C@]1(C)[C@@H]([C@H](C)C/C=C/C(C)(C)O)CC[C@@]41C)[C@@H]2CC[C@H](OC(=O)CC(=O)O)C3(C)C | – | 42.6 | 29.1 | inactive | inactive | inactive | 113 | inactive
4 | COC(=O)CC(=O)O[C@H]1CC[C@@H]2C(=C[C@H](O)[C@@H]3[C@@]2(C=O)CC[C@]2(C)[C@@H]([C@H](C)C/C=C/C(C)(C)OC)CC[C@@]32C)C1(C)C | inactive | 64.3 | 15.6 | inactive | inactive | inactive | 69 | inactive
5 | CO[C@H]1C=C2[C@@H](CC[C@H](O)C2(C)C)[C@]2(C=O)CC[C@]3(C)[C@@H]([C@H](C)C/C=C/C(C)(C)OC)CC[C@@]3(C)[C@H]12 | – | 35 | 35.6 | inactive | inactive | inactive | 90.5 | inactive
6 | O=c1c(O)c(-c2ccc(O)c(O)c2)oc2cc(O)cc(O)c12 [QUERCETIN] | – | 88.9 | 4.2 | – | – | – | 142 | –
7 | CO[C@H]1C=C2[C@@H](CC[C@H](OC(=O)CC(=O)O)C2(C)C)[C@]2(C=O)CC[C@]3(C)[C@@H]([C@H](C)C/C=C/C(C)(C)OC)CC[C@@]3(C)[C@H]12 | inactive | 56.5 | 22.1 | inactive | inactive | inactive | 72.4 | inactive
8 | CO[C@H]1O[C@]23C=C[C@@H]4[C@@]1(CC[C@]1(C)[C@@H]([C@H](C)C/C=C/C(C)(C)O)CC[C@@]41C)[C@@H]2CC[C@H](OC(=O)CC(=O)O)C3(C)C | – | 66.1 | 11.3 | inactive | inactive | inactive | 59.6 | inactive
9 | CO[C@@H](C=C(C)C)C[C@@H](C)[C@H]1CC[C@@]2(C)[C@@H]3[C@@H](O)C=C4[C@@H](CC[C@H](OC(=O)CC(=O)O)C4(C)C)[C@]3(C=O)CC[C@]12C | inactive | 68.8 | 16.1 | inactive | inactive | inactive | 61.9 | inactive
10 | CO[C@H]1C=C2[C@@H](CC[C@H](OC(=O)CC(=O)O)C2(C)C)[C@]2(C=O)CC[C@]3(C)[C@@H]([C@H](C)C/C=C/C(C)(C)O)CC[C@@]3(C)[C@H]12 | – | 51.2 | 24.4 | inactive | inactive | inactive | 125 | inactive
11 | C[C@H](C/C=C/C(C)(C)O)[C@H]1CC[C@@]2(C)[C@@H]3[C@@H](O)C=C4[C@@H](CC[C@H](OC(=O)CC(=O)O)C4(C)C)[C@]3(C=O)CC[C@]12C | – | 77 | 16 | inactive | inactive | inactive | 53.8 | inactive
12 | C/C=C/C(=O)O[C@H]1CC[C@@H]2C(=C[C@H](O)[C@@H]3[C@@]2(C=O)CC[C@]2(C)[C@@H]([C@H](C)C/C=C/C(C)(C)O)CC[C@@]32C)C1(C)C | – | 73.3 | 19.1 | inactive | inactive | inactive | 94.7 | inactive
13 | CCOC(C)(C)/C=C/C[C@@H](C)[C@H]1CC[C@@]2(C)[C@@H]3[C@@H](O)C=C4[C@@H](CC[C@H](OC(=O)CC(=O)O)C4(C)C)[C@]3(C=O)CC[C@]12C | – | 50.4 | 24 | inactive | inactive | inactive | 89.7 | inactive
